# Experimental data: patent US9006205B2, “Antisense oligonucleotides against neutral sphingomyelinase and neutral sphingomyelinase inhibitor GW4869 for degenerative neurological disorders” (Rush University Medical Center, priority 2011, dated 2015)
# Legend:
# Type in all cases: cell-based
# [1] = test system: primary human astroglia; assay: NO synthesis (nitrite, Griess reagent) in primary human astroglia; conditions: astroglia preincubated 30 min with different concentrations of chemical inhibitor; nitrite after 24 h
# Procedure: Synthesis of NO was determined by assay of culture supernatants for nitrite, a stable reaction product of NO with molecular oxygen, using Griess reagent as described.
# After 24 h of stimulation, the concentration of nitrite was measured in supernatants (FIG. 4A) by Griess reagent. […] Cells were treated with ASO/ScO for 40 h followed by stimulation with the combination of fibrillar Aβ and IL-Iβ as above. After 6 h, the expression of iNOS mRNA was analyzed by both semi-quantitative RT-PCR (C) and quantitative real-time PCR (FIG. 4D). The expression of TNF-a, IL-6 and IL-Iβ mRNAs were analyzed by semi-quantitative RT-PCR (FIG. 4E). Results are mean±SD of three different experiments. ^ap<0.001 vs control; ^bp<0.001 vs (Aβ+IL-Iβ).
# [2] = biological target: T1, N-SMase (Homo sapiens, UniProt Q9NY59); assay: Assay of N-SMase activity in primary human neurons; conditions: activated astroglia-insulted human neurons, chemical inhibitors
# T1 construct: endogenous in cells; host or cells: primary human neurons
# T1 sequence (Q9NY59 1-655): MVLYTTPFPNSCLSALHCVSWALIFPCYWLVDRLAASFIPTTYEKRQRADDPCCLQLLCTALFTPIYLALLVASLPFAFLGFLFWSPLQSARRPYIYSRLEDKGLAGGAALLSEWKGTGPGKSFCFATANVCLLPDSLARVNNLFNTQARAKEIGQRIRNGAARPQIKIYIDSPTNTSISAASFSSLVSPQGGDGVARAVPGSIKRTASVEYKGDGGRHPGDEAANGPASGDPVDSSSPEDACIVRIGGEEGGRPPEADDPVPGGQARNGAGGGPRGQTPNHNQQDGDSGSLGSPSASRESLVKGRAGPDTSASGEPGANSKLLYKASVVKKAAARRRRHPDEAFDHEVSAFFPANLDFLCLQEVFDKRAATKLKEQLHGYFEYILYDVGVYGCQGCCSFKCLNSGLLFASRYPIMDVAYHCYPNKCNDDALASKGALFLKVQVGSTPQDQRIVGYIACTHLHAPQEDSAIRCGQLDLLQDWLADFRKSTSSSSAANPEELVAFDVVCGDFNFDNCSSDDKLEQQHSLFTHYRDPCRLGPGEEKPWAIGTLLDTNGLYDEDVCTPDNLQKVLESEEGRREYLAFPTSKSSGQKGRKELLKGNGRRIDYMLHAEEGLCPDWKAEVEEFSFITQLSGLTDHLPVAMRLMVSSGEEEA
# Procedure: Activities of SMase(s) were assayed as described by. Briefly, after treatment, the cells were washed with PBS, harvested in PBS, divided into two halves, and centrifuged. The fraction for N-SMase was resuspended in buffer A (100 mM Tris-HCl, pH 7.4, 0.1% Triton X-100, 1 mM EDTA, and protease inhibitors), and the cell suspension was sonicated and centrifuged at 500×g at 4° C. for 5 min. The supernatant was used as the enzyme source for N-SMase. The reaction mixture contained enzyme preparation in buffer A containing 5 nmol of [^14C] sphingomyelin, 5 nmol of phosphatidylserine, 5 mM dithiothreitol, and 5 mM MgC¾ in a final volume of 100 μl. Similarly, the fraction for A-SMase was resuspended in buffer B (100 mM sodium acetate, pH 5.0, 0.1% Triton X-100, and protease inhibitors). The cell suspension was sonicated and centrifuged. The supernatant was used as the source of A-SMase. The activity of A-SMase was measured in a 100-μl reaction mixture consisting of the enzyme preparation in buffer B and 5 nmol of [^14C] sphingomyelin. The enzyme reaction was initiated by the addition of 50 μl of substrate and stopped by the addition of 1.5 ml of chloroform:methanol (2:1, v/v) and 0.2 ml of water. After vortexing and phase separation, the aqueous phase was removed for counting.
# In FIGS. 3A-3E, primary human astrocytes seeded in inserts were stimulated by the combination of Aβ and IL-Iβ as described above. After 24 h, media were removed and inserts were washed and placed on neurons that were pretreated with PTIO for 30 min. In FIG. 3A, after 1 h, activity of N-SMase was measured in total cell extracts of neurons as described above. After 18 h, neuronal viability was examined by the metabolism of MTT (FIG. 3B) and the release of LDH (FIG. 3C). Values obtained from the control group served as 100%, and data obtained in other groups were calculated as percent of control accordingly. Results are mean+S.D. of three different experiments. ^ap<0.001 vs control; ^bp<0.001 vs activated astrocytes. Primary human neurons were treated with 25 μM DETA-NONOate (a NO donor) and at different time points of treatment, activities of N-SMase (FIG. 3D) and A-SMase (FIG. 3E) were monitored. ^ap<0.001 vs control (0 h).
# [3] = biological target: T2, A-SMase (Homo sapiens, UniProt P17405); assay: Assay of A-SMase activity in primary human neurons; conditions: activated astroglia-insulted human neurons, chemical inhibitors
# T2 construct: The supernatant was used as the source of A-SMase; endogenous in cells; host or cells: primary human neurons
# T2 sequence (P17405 47-631): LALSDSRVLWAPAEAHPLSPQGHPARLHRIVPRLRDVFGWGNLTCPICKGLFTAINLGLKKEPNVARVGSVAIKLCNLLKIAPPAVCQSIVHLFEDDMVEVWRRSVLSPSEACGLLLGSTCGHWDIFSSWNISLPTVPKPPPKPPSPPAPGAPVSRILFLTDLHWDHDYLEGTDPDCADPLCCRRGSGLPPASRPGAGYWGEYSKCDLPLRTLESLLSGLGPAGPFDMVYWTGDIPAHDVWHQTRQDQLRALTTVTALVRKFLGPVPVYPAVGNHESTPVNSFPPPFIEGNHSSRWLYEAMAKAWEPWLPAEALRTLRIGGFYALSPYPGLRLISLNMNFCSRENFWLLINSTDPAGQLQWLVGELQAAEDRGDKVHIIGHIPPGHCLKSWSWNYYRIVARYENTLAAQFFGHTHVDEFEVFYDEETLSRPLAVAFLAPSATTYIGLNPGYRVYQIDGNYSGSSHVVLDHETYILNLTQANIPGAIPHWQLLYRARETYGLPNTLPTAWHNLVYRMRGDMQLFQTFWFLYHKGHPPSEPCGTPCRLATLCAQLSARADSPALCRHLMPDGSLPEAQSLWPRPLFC
# Procedure: Activities of SMase(s) were assayed as described by. Briefly, after treatment, the cells were washed with PBS, harvested in PBS, divided into two halves, and centrifuged. The fraction for N-SMase was resuspended in buffer A (100 mM Tris-HCl, pH 7.4, 0.1% Triton X-100, 1 mM EDTA, and protease inhibitors), and the cell suspension was sonicated and centrifuged at 500×g at 4° C. for 5 min. The supernatant was used as the enzyme source for N-SMase. The reaction mixture contained enzyme preparation in buffer A containing 5 nmol of [^14C] sphingomyelin, 5 nmol of phosphatidylserine, 5 mM dithiothreitol, and 5 mM MgC¾ in a final volume of 100 μl. […] The activity of A-SMase was measured in a 100-μl reaction mixture consisting of the enzyme preparation in buffer B and 5 nmol of [^14C] sphingomyelin. […]
# In FIGS. 3A-3E, primary human astrocytes seeded in inserts were stimulated by the combination of Aβ and IL-Iβ as described above. […] In FIG. 3A, after 1 h, activity of N-SMase was measured in total cell extracts of neurons as described above. […] Values obtained from the control group served as 100%, and data obtained in other groups were calculated as percent of control accordingly. […] Primary human neurons were treated with 25 μM DETA-NONOate (a NO donor) and at different time points of treatment, activities of N-SMase (FIG. 3D) and A-SMase (FIG. 3E) were monitored. ^ap<0.001 vs control (0 h).
smiles,measurement,setting,value
CN(C)CCCN1c2ccccc2CCc2ccccc21 [imipramine],(Aβ+IL-1β)-induced production of NO,[1],showed no effect
same,activity of N-SMase,[2],but not N-SMase
same,activity of A-SMase,[3],inhibited
